Data: PubChem BioAssay (NCI)
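Test compounds were applied to cells in 96-well plates for 48 hours at 5 doses. TGI is the concentration that stops growth completely.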

What was measured:
Assay in all cases: inhibition of tumour cell growth, NCI panel, 48 h
[1] = test system: NCI-H23 lung
[2] = test system: CCRF-CEM leukemia
[3] = test system: UACC-62 melanoma
[4] = test system: LOX IMVI melanoma
[5] = test system: NCI-H460 lung
[6] = test system: OVCAR-3 ovarian
[7] = test system: UACC-257 melanoma
[8] = test system: NCI-H522 lung
[9] = test system: NCI-H226 lung
[10] = test system: SNB-19 CNS
[11] = test system: SK-OV-3 ovarian
[12] = test system: IGROV1 ovarian
[13] = test system: MALME-3M melanoma
[14] = test system: SF-295 CNS
[15] = test system: MOLT-4 leukemia
[16] = test system: ACHN renal
[17] = test system: HOP-92 NSCLC
[18] = test system: OVCAR-4 ovarian
[19] = test system: NCI/ADR-RES ovarian

Structure (SMILES) | TGI [1] [µM] | TGI [2] [µM] | TGI [3] [µM] | TGI [4] [µM] | TGI [5] [µM] | TGI [6] [µM] | TGI [7] [µM] | TGI [8] [µM] | TGI [9] [µM] | TGI [10] [µM] | TGI [11] [µM] | TGI [12] [µM] | TGI [13] [µM] | TGI [14] [µM] | TGI [15] [µM] | TGI [16] [µM] | TGI [17] [µM] | TGI [18] [µM] | TGI [19] [µM]
NC(=O)c1cccc(C2OC(COP(=O)(O)O)C(O)C2O)c1 (configuration not stated) | > 50 | > 50 | > 50 | > 50 | > 50 | > 50 | > 50 | > 50 | > 50 | > 50 | > 50 | > 50 | > 50 | > 50 | > 50 | > 50 |  |  | 
O=C1Cc2c([nH]c3c(Cl)cccc23)-c2ccccc2N1 | > 100 | > 100 | > 100 | > 100 | > 100 | > 100 |  | > 100 | > 100 | > 100 | > 100 | > 100 | > 100 | > 100 | > 100 | > 100 | > 100 | > 100 | 
Cc1ccc(Cc2n[nH]c(=O)n2-c2ccccc2)cc1 | > 100 |  | > 100 |  | > 100 |  | > 100 |  | > 100 | > 100 |  | > 100 | > 100 | > 100 | > 100 | > 100 |  |  | > 100
COc1ccc(/C=C2\C(=O)N(C)C(=O)c3cc(OC)c(OC)cc32)cc1OC | > 100 | 69.7 | 94 | 34.1 | > 100 | > 100 | > 100 | 36.4 | 34.7 | > 100 |  | > 100 |  | 78.7 | > 100 | > 100 | 75.5 | > 100 | 
CC(=O)O[C@]12CCCCC1C1(O)C(O)CCCCC12 (some centres not stated) | > 100 | > 100 | > 100 | > 100 | > 100 |  | > 100 | > 100 | > 100 | > 100 | > 100 |  | > 100 | > 100 | > 100 | > 100 |  | > 100 | 
COc1ccccc1/C=C(\C#N)C(=O)c1ccccc1 | > 100 | > 100 | > 100 | > 100 | > 100 | > 100 | > 100 | > 100 | > 100 | > 100 | > 100 | > 100 | > 100 | > 100 | > 100 | > 100 | > 100 | > 100 | 
C#CCNC(=O)NCCCC(NC(C)=O)C(=O)NCc1ccccc1 (configuration not stated) | > 100 | > 100 | > 100 | > 100 | > 100 | > 100 | > 100 | > 100 | > 100 | > 100 | > 100 | > 100 | > 100 | > 100 | > 100 | > 100 | > 100 | > 100 | 
